Results published in BindingDB's records for doi:10.1016/j.bmcl.2007.04.110 (Vernalis (R&D), 2007).

Biological target: Cyclin-A2/Cyclin-dependent kinase 2 (Homo sapiens, UniProt P24941)
Assay: CDK Inhibition Assay
Details: pH 7.5; 22 °C
Description: In vitro kinase assay using purified CDK2/Cyclin A was incubated at room temperature with substrate, and test compounds in the presence of 100 uM ATP/ [gamma-33P] ATP. Assays were performed in 96-well polypropylene plates. 33P incorporation into substrate was measured using a scintillation counter.

- IC50: 760 nM
Structure (SMILES): NS(=O)(=O)c1ccc(-c2ccc(/C=c3\sc4nc5ccccc5n4c3=O)o2)cc1 [4-(5-{[(4Z)-3-oxo-5-thia-2,7-diazatricyclo[6.4.0.0^{2,6}]dodeca-1(12),6,8,10-tetraen-4-ylidene]methyl}furan-2-yl)benzene-1-sulfonamide]
